The values that follow come from patent publication US12570642B2, “GLP-IR modulating compounds” (Gilead Sciences, Inc., priority 2021, dated 2026).

Each structure is given as a SMILES string.

The target in this experiment is GLP-1R (Homo sapiens, UniProt P43220). The experiment can be described thus: GLP-1R Activation - cAMP Assay. The experiment is classed as cell-based. The settings on record: cAMP increase in CHO cells stably expressing GLP-1R; each compound run on one of the two cAMP assays (Assay 1 or Assay 2, not specified). The method in brief: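 cAMP rise read by HTRF after 30 min agonist exposure (10-point titration, 37 °C) in HBSS/20 mM Hepes/0.1% BSA, following 1 h pre-incubation. Cells: stable GLP-1R CHO line, 1,000/well, seeded overnight. Sigmoidal fit of response vs log concentration gives EC50.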
Sequence of GLP-1R (P43220 24-463): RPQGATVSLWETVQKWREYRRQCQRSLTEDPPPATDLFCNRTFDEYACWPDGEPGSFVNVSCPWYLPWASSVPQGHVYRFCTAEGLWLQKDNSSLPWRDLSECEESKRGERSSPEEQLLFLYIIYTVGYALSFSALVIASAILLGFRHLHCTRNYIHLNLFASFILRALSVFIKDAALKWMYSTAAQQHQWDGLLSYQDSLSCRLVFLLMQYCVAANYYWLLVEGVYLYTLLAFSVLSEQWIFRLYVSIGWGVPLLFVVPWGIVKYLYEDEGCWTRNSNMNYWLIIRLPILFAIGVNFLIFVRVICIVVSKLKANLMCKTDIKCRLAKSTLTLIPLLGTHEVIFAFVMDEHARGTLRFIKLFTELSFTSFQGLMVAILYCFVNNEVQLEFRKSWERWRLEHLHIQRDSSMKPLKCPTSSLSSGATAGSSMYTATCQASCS
On the technique in general: cAMP levels reflect the balance of adenylyl cyclase and phosphodiesterase activity.

As a reminder, the EC50 is the concentration that produces a half-maximal response. Consider `COC(=O)N1Cc2ccc(COc3nc(-c4cc(F)c(Cc5nc6ccc(C(=O)O)cc6n5C[C@@H]5CCO5)cc4F)ccc3F)cc2C1` [Example 516, (S)-2-(2,5-difluoro-4-(5-fluoro-6-((2-(methoxycarbonyl)isoindolin-5-yl)methoxy)pyridin-2-yl)benzyl)-1-(oxetan-2-ylmethyl)-1H-benzo[d]imidazole-6-carboxylic acid], for which it took 0.088 nM to reach a half-maximal effect (EC50). Under `CC1(C)COC[C@H]1n1c(Cc2c(F)cc(-c3ccc(F)c(OCc4ccc(C#N)cc4F)n3)cc2F)nc2ccc(C(=O)O)cc21` [Example 322, (S)-2-(4-(6-((4-cyano-2-fluorobenzyl)oxy)-5-fluoropyridin-2-yl)-2,6-difluorobenzyl)-1-(4,4-dimethyltetrahydrofuran-3-yl)-1H-benzo[d]imidazole-6-carboxylic acid] stands 0.346 nM. Under `CC1(C)COC[C@H]1n1c(Cc2c(F)cc(-c3cccc(OCc4cnc(-n5ccnn5)cc4Cl)n3)c(F)c2F)nc2ccc(C(=O)O)cc21` [Example 157, (S)-2-(4-(6-((4-chloro-6-(1H-1,2,3-triazol-1-yl)pyridin-3-yl)methoxy)pyridin-2-yl)-2,3,6-trifluorobenzyl)-1-(4,4-dimethyltetrahydrofuran-3-yl)-1H-benzo[d]imidazole-6-carboxylic Acid] stands 0.081 nM; under `CC1(C)COC[C@H]1n1c(Cc2ccc(-c3ccc(F)c(OCc4ccc(C#N)cc4F)n3)cc2F)nc2c(F)cc(C(=O)O)cc21` [Example 337, (S)-2-(4-(6-((4-cyano-2-fluorobenzyl)oxy)-5-fluoropyridin-2-yl)-2-fluorobenzyl)-1-(4,4-dimethyltetrahydrofuran-3-yl)-4-fluoro-1H-benzo[d]imidazole-6-carboxylic acid], 0.025 nM; under `Cc1cc(Cc2nc3ccc(C(=O)O)cc3n2[C@@H]2COCC2(C)C)c(Cl)cc1-c1ccnc(OCc2ccc(C#N)cc2)n1` [Example 301, (S)-2-(2-chloro-4-(2-((4-cyanobenzyl)oxy)pyrimidin-4-yl)-5-methylbenzyl)-1-(4,4-dimethyltetrahydrofuran-3-yl)-1H-benzo[d]imidazole-6-carboxylic acid], 0.714 nM. Under `COCCn1c(Cc2cc(F)c(-c3ccc(F)c(OCc4ccc(C#N)cc4)n3)cc2F)nc2ccc(C(=O)O)c(F)c21` [Example 366, 2-(4-(6-((4-cyanobenzyl)oxy)-5-fluoropyridin-2-yl)-2,5-difluorobenzyl)-7-fluoro-1-(2-methoxyethyl)-1H-benzo[d]imidazole-6-carboxylic acid] stands 1.17 nM; under `C[C@H]1COC[C@H]1n1c(Cc2cc(F)c(-c3ccc(F)c(OCc4ccc(C#N)cc4F)n3)cc2F)nc2ccc(C(=O)O)cc21` [Example 486, 2-(4-(6-((4-cyano-2-fluorobenzyl)oxy)-5-fluoropyridin-2-yl)-2,5-difluorobenzyl)-1-((3S,4R)-4-methyltetrahydrofuran-3-yl)-1H-benzo[d]imidazole-6-carboxylic acid], 0.054 nM.

Consider `CC1(C)COCC1n1c(Cc2cc(F)c(-c3cccc(OCc4ccc(C(F)(F)F)cc4F)n3)cc2F)nc2c(F)cc(C(=O)O)cc21` (stereo not shown) [Example 175, 2-(2,5-difluoro-4-(6-((2-fluoro-4-(trifluoromethyl)benzyl)oxy)pyridin-2-yl)benzyl)-1-(4,4-dimethyltetrahydrofuran-3-yl)-4-fluoro-1H-benzo[d]imidazole-6-carboxylic Acid], for which a half-maximal response (EC50) required 0.106 nM. The same measure for `CC1(C)COC[C@H]1n1c(Cc2cc(F)c(-c3ncc(F)c(OCc4ccc(Cl)cc4F)n3)cc2F)nc2ccc(C(=O)O)cc21` [Example 410, (S)-2-(4-(4-((4-chloro-2-fluorobenzyl)oxy)-5-fluoropyrimidin-2-yl)-2,5-difluorobenzyl)-1-(4,4-dimethyltetrahydrofuran-3-yl)-1H-benzo[d]imidazole-6-carboxylic acid]: 0.349 nM; for `COCCn1c(Cc2cc(F)c(-c3cccc(OCc4ccc(C)nc4C)n3)cc2F)nc2ccc(C(=O)O)cc21` [Example 25]: 7.55 nM; for `CC1(C)COC[C@H]1n1c(Cc2cc(F)c(-c3cccc(OCc4c(F)cc(Cl)cc4F)n3)cc2F)nc2ccc(C(=O)O)cc21` [Example 489, (S)-2-(4-(6-((4-chloro-2,6-difluorobenzyl)oxy)pyridin-2-yl)-2,5-difluorobenzyl)-1-(4,4-dimethyltetrahydrofuran-3-yl)-1H-benzo[d]imidazole-6-carboxylic acid]: 0.342 nM. With `COc1cc(Cl)ncc1COc1cccc(-c2cc(F)c(Cc3nc4ccc(C(=O)O)cc4n3[C@H]3COCC3(C)C)cc2F)n1` (single isomer, unassigned) [Example 290B], the midpoint of the response, the EC50, lay at 0.764 nM. Under `COCCn1c(Cc2cc(C)c(-c3cccc(OCc4ccc(C#N)cc4F)n3)cc2Cl)nc2c(F)cc(C(=O)O)cc21` [Example 227, 2-(2-chloro-4-(6-((4-cyano-2-fluorobenzyl)oxy)pyridin-2-yl)-5-methylbenzyl)-4-fluoro-1-(2-methoxyethyl)-1H-benzo[d]imidazole-6-carboxylic acid] stands 4.8 nM; under `COCCn1c(Cc2cc(F)c(-c3cccc(OCc4cc(F)c(F)cc4F)n3)cc2F)nc2ccc(C(=O)O)cc21` [Example 27, 2-(2,5-difluoro-4-(6-((2,4,5-trifluorobenzyl)oxy)pyridin-2-yl)benzyl)-1-(2-methoxyethyl)-1H-benzo[d]imidazole-6-carboxylic Acid], 13.1 nM; under `COCCn1c(Cc2cc(F)c(-c3cccc(OCc4ccc(OC(F)(F)F)cc4)n3)cc2F)nc2ccc(C(=O)O)cc21` [Example 32, 2-(2,5-difluoro-4-(6-((4-(trifluoromethoxy)benzyl)oxy)pyridin-2-yl)benzyl)-1-(2-methoxyethyl)-1H-benzo[d]imidazole-6-carboxylic Acid], 3.43 nM.

As for `CC1(C)COC[C@H]1n1c(Cc2ccc(-c3cccc(OCc4cnc(-n5ccnn5)cc4Cl)n3)cc2F)nc2ccc(C(=O)O)cc21` [Example 158, (S)-2-(4-(6-((4-chloro-6-(1H-1,2,3-triazol-1-yl)pyridin-3-yl)methoxy)pyridin-2-yl)-2-fluorobenzyl)-1-(4,4-dimethyltetrahydrofuran-3-yl)-1H-benzo[d]imidazole-6-carboxylic Acid], the midpoint of the response, the EC50, lay at 0.032 nM. `COC(=O)N1Cc2ccc(COc3cccc(-c4cc(F)c(Cc5nc6c(F)cc(C(=O)O)cc6n5[C@@H]5COCC5(C)C)cc4F)n3)cc2C1` [Example 263, (S)-2-(2,5-difluoro-4-(6-((2-(methoxycarbonyl)isoindolin-5-yl)methoxy)pyridin-2-yl)benzyl)-1-(4,4-dimethyltetrahydrofuran-3-yl)-4-fluoro-1H-benzo[d]imidazole-6-carboxylic acid] had an EC50 of 0.709 nM. Compared with the last molecule, the EC50 is about 22-fold higher.

As to `COCCn1c(Cc2cc(F)c(-c3cccc(OCc4ccc5c(c4)CN(S(C)(=O)=O)C5)n3)cc2F)nc2c(F)cc(C(=O)O)cc21` [Example 514, 2-(2,5-difluoro-4-(6-((2-(methylsulfonyl)isoindolin-5-yl)methoxy)pyridin-2-yl)benzyl)-4-fluoro-1-(2-methoxyethyl)-1H-benzo[d]imidazole-6-carboxylic acid], the EC50 worked out at 0.152 nM. Under `CO[C@]1(C)COC[C@@H]1n1c(Cc2cc(F)c(-c3cccc(OCc4ccc(Cl)cc4F)n3)cc2F)nc2ccc(C(=O)O)cc21` (single isomer, unassigned) [Example 473] stands 0.092 nM; under `N#Cc1ccc(COc2cccc(-c3cc(F)c(Cc4nc5ccc(C(=O)O)cc5n4[C@@H]4COC[C@@H]4C4CC4)cc3F)n2)c(F)c1` [Example 191, 2-(4-(6-((4-cyano-2-fluorobenzyl)oxy)pyridin-2-yl)-2,5-difluorobenzyl)-1-((3S,4R)-4-cyclopropyltetrahydrofuran-3-yl)-1H-benzo[d]imidazole-6-carboxylic acid], 0.353 nM; under `COCCn1c(Cc2cc(F)c(-c3cccc(OCc4ccc(-c5cnn(C(F)F)c5)nc4)n3)cc2F)nc2ccc(C(=O)O)cc21` [Example 109, 2-(4-(6-((6-(1-(difluoromethyl)-1H-pyrazol-4-yl)pyridin-3-yl)methoxy)pyridin-2-yl)-2,5-difluorobenzyl)-1-(2-methoxyethyl)-1H-benzo[d]imidazole-6-carboxylic Acid], 2.51 nM. The molecule `CC1(C)COC[C@H]1n1c(Cc2cc(F)c(-c3cccc(OCc4ccc(F)cc4F)n3)cc2F)nc2ccc(C(=O)O)cc21` [Example 466, (S)-2-(4-(6-((2,4-difluorobenzyl)oxy)pyridin-2-yl)-2,5-difluorobenzyl)-1-(4,4-dimethyltetrahydrofuran-3-yl)-1H-benzo[d]imidazole-6-carboxylic acid] came in with an EC50 of 0.124 nM. In turn, `CC1(C)COC[C@H]1n1c(Cc2ccc(-c3cccc(OCc4ccc(C#N)cc4)n3)cc2F)nc2c(F)cc(C(=O)O)cc21` [Example 372, (S)-2-(4-(6-((4-cyanobenzyl)oxy)pyridin-2-yl)-2-fluorobenzyl)-1-(4,4-dimethyltetrahydrofuran-3-yl)-4-fluoro-1H-benzo[d]imidazole-6-carboxylic acid] came in with an EC50 of 0.163 nM. Under `COC(C)(C)Cn1c(Cc2cc(F)c(-c3cccc(OCc4ccc(Cl)cc4F)n3)cc2F)nc2ccc(C(=O)O)cc21` [Example 510, 2-(4-(6-((4-chloro-2-fluorobenzyl)oxy)pyridin-2-yl)-2,5-difluorobenzyl)-1-(2-methoxy-2-methylpropyl)-1H-benzo[d]imidazole-6-carboxylic acid] stands 0.509 nM.

For the molecule `CC1(C)COC[C@H]1n1c(Cc2c(F)cc(-c3ccnc(OCc4ccc(Cl)cc4)n3)c(F)c2F)nc2c(F)cc(C(=O)O)cc21` [Example 229, (S)-2-(4-(2-((4-chlorobenzyl)oxy)pyrimidin-4-yl)-2,3,6-trifluorobenzyl)-1-(4,4-dimethyltetrahydrofuran-3-yl)-4-fluoro-1H-benzo[d]imidazole-6-carboxylic acid], the 50% effective concentration (EC50) stood at 0.135 nM.
